Data as given in patent publication US20020131996A1, “Methods and compositions for blocking microbial adherence to eukaryotic cells” (priority 2001, published 2002).

How the values were obtained:
Assay type in all cases: in vivo, human
bacterial vaginosis = assay: Amelioration of bacterial vaginosis with isoleucine powder applied in the vagina
Experimental: In this example isoleucine was administered locally to the vagina to treat the symptoms of bacterial vaginosis. By inhibiting the adherence of bacteria to the wall of the vagina, microbial growth, inflammation, and associated signs of malodorous discharge and symptoms such as pruritis can be treated. A person, with a normal menstrual cycle and in excellent health, experienced vaginal irritation and malodorous discharge associated with their cycle, generally beginning several days prior to the onset of their period. Isoleucine was self-administered as a powder locally within the vaginal cavity digitally, twice a day. Within 2 days symptoms of vaginosis disappeared. Isoleucine therapy was continued for several days following termination of menstrual discharge, and then stopped. […] Isoleucine was again administered during the following months, cycled as described initially.

[1] = test system: irritable bowel syndrome (IBS); assay: Amelioration of irritable bowel syndrome with isoleucine in yogurt
Experimental: In this example isoleucine was administered to individuals who experienced irritable bowel syndrome (IBS). IBS is a loosely defined condition associated with bowel discomfort including abdominal bloating, nausea, pain, and a sense of incomplete bowel movements. The etiology underlying IBS is unknown. It is our hypothesis that IBS results from adherence of certain “pathogenic” commensal organisms to the epithelial lining of certain segments of the GI tract, resulting in disturbance of normal host-bacteria relationships. […] Two women, each in their mid-50's, presented with a history of IBS of over 20 years, in each case. In each, IBS was characterized by a sense of bloating experienced after eating cooked or raw vegetables, fruits, and meat. Each individual experienced urgency to move her bowels several times a day to an extent that often awakened the individuals from sleep. Bloating was accompanied by abdominal discomfort, described as mild cramps. Individuals felt “gassy” most of the day. Each individual was given isoleucine, 1 tsp, twice a day, each dose mixed in ½cup of yogurt. The yogurt was included to promote reinoculation of the GI tract with probiotic “good” bacteria. In each case, it was known from previous experience that yogurt itself had little effect on the IBS experienced by these individuals. Within 2 days of isoleucine administration, bloating, urgency to defecate, and gassiness had disappeared. Both individuals described the state of their bowel function as “normal”, for the first time in 20 years. […] Each was then withdrawn from isoleucine, and provided yogurt unsupplemented with isoleucine. Within about 2 days both women recorded a reappearance of the former symptoms of IBS.

[2] = test system: infectious diarrhea (diarrheal agent not known); assay: Treatment of infectious diarrhea with oral isoleucine solution
Experimental: In this example isoleucine was administered to treat infectious diarrhea. In this example three individuals were naturally innoculated by a common agent. The nature of the diarrheal agent is not known. The duration of diarrhea was consistent with an infectious etiology. Isoleucine was utilized based on the hypothesis that reduction in microbial adherence would likely limit the continued re-infection of the gut wall by the agent, and/or prevent attachment of opportunistic commensal organisms.
Three members of a family traveling in the Middle East (MZ, BZ, JZ) contracted watery diarrhea, associated with food intolerance, following a meal they shared at a restaurant. Each individual had been in excellent health without prior history of GI complaints. All were unmedicated, including aspirin or antihistamines. […] Diarrhea was watery, without gross blood, minimal mucous, slight fever with chills, no nausea, and persistence of hunger. Peristalsis was vigorous and increased by ingestion of food. Each individual was placed on a diet restricted to clear liquids (juices and soda), digestible carbohydrates (bread, rice, candy). No medications were administered.
Six days after ingestion of the diarrheal agent, one individual was begun on oral isoleucine (ILE) therapy, while the other two continued on restricted diets. ILE (#E-2025 Bachem, lot 511191) was dissolved in distilled water to 0.001%. One glass of ILE solution (about 250 ml) was consumed every several hours. A total of about 4 liters was consumed over {fraction (3 1/2)}days. A reduction in stool frequency was noted within 12 hours of initiation of ILE therapy.

[3] = test system: bacteria adherent to gingival epithelial cells; assay: Microbial adherence to gingival epithelial cells in volunteers with low grade gingivitis (Giemsa-stained gingival scrapings)
Source text: In this example isoleucine was applied as a pure crystalline powder directly to the gums. The individuals were normal human volunteers. Each individual had clinically evident low grade gingivitis, as determined by the puffiness of the gingival margin and a history of some bleeding during normal dental brushing. Oral health care comprised twice daily flossing and dental brushing with a non-medicated toothpaste. No oral antiseptic was used. The individuals were not taking antibiotics. Isoleucine was applied by application of powder on the fingertip to the outer and inner gum margins of the upper and lower jaws. The entirety of the gingival surface was covered manually, twice daily. The AM application was performed following breakfast, immediately after brushing. The PM application was conducted prior to retiring for sleep.
Gingival surface was gently scrapped with the side of a rectangular glass cover slip and the material described was applied to a glass microscope slide and air-dried. The slide was stained in concentrated Giemsa stain for 1 min, then destained in water for 5 min. The slide was then air-dried and mounted with a cover slip cemented with Permount. Slides were examined by light microscopy at 100×and 400×magnification. Under these staining conditions bacteria were clearly visualized as dark blue particles against the pale gray epithelial cells.
Gingival scrapings were taken in the morning prior to normal oral care and prior to eating. Prior to scraping, the subject rinsed the mouth with a cup of water to wash free particulate matter, unattached cells, and bacteria.
Scrapings were taken 3 days and 1 day prior to isoleucine administration and 1, 3, 5, and 7 days during isoleucine application. […] The bacteria adherent were represented by several different species, distinguished by morphology. […] At least 200 bacteria were counted on the average on each cell.

[4] = Day 1 of isoleucine powder applied to gums twice daily
[5] = Day 3 of isoleucine powder applied to gums twice daily
[6] = Day 7 of isoleucine powder applied to gums twice daily

CC[C@H](C)[C@H](N)C(=O)O [isoleucine]
Symptoms following cessation of isoleucine administration (bacterial vaginosis; after cessation): remained symptom free
Outcome of chronic vaginosis based on symptoms and signs (bacterial vaginosis; cycled administration during following months): effectively cured
Time to disappearance of symptoms of vaginosis (bacterial vaginosis; one person, powder in the vaginal cavity twice a day): ≤ 2 days
Response during maintenance on isoleucine ([1]; maintained for 1 month): consistent response
State of bowel function as described by the individuals ([1]; two women on isoleucine in yogurt): normal
Time to disappearance of bloating, urgency to defecate, and gassiness ([1]; two women, isoleucine 1 tsp twice a day in 1/2 cup yogurt): ≤ 2 days
Time to reappearance of former IBS symptoms after withdrawal from isoleucine ([1]; yogurt unsupplemented with isoleucine): about 2 days
Shortening of the duration of diarrhea ([2]; MZ versus two untreated family members (BZ, JZ)): approximately three
Stools passed on the 3rd day of ILE therapy ([2]; individual, 3rd day): no stools were passed
Food tolerance ([2]; individual, by the 3rd day): cheese and chicken tolerated
Stool by day 4 following ILE treatment ([2]; individual, day 4): a normal stool was passed
Time to reduction in stool frequency after initiation of ILE therapy ([2]; one individual, 0.001% ILE in distilled water, oral, begun six days after ingestion of agent): ≤ 12 h
Change in number of epithelial cells covered with a dense coat of bacteria ([3]; Day 1 following initiation of isoleucine application): little change
Gingival epithelial cells with 0 Bacteria [3, 4]: 0 % cells
Gingival epithelial cells with 1-10 Bacteria [3, 4]: 10 % cells
Gingival epithelial cells with 10-100 Bacteria [3, 4]: 10 % cells
Gingival epithelial cells with Contiguous lawn of bacteria [3, 4]: 80 % cells
Adherent bacteria in gingival smears ([3]; Day 3): dramatic reduction
Microcolonies (contiguous groupings of greater than 4 organisms) on cells ([3]; Day 3): Few
Neutrophils in gingival smear (sign of inflammation) ([3]; Day 3): No neutrophils were evident
Total adherent bacteria per cell (most cells) ([3]; Day 3): < 100
Cells fully covered with bacteria, of 100 cells examined ([3]; Day 3, of 100 cells examined): 40
Gingival epithelial cells with 0 Bacteria [3, 5]: 15 % cells
Gingival epithelial cells with 1-10 Bacteria [3, 5]: 15 % cells
Gingival epithelial cells with 10-100 Bacteria [3, 5]: 30 % cells
Gingival epithelial cells with Contiguous lawn of bacteria [3, 5]: 40 % cells
Breath as described by an examiner in the AM prior to oral hygiene ([3]; Day 7): free of odor
Gingival epithelial cells with 0 Bacteria [3, 6]: 80 % cells
Gingival epithelial cells with 1-10 Bacteria [3, 6]: 15 % cells
Gingival epithelial cells with 10-100 Bacteria [3, 6]: 0 % cells
Gingival epithelial cells with Contiguous lawn of bacteria (fully covered) [3, 6]: 5 % cells
